The values below come from PMC9518609, “Design and synthesis of new trimethoxylphenyl-linked combretastatin analogues loaded on diamond nanoparticles as a panel for ameliorated solubility and antiproliferative activity” (Journal of Enzyme Inhibition and Medicinal Chemistry, 2022).

Holding throughout (assay type): cell-based
One assay deals with caspase 3/7. The assay can be described thus: Caspase 3/7 green flow cytometry assay in MDA-MB-231 cells. The following applies: MDA-MB-231, at IC50, 24 h. An excerpt: Further, it is important to check effector caspase 3/7. The cleavage of caspases is specifically responsible for programmed cell death and apoptosis. […] The results were shown in Figure 5 and the expression level of caspase 3/7 was increased when compared with no control cells.
Caspase 3/7 in MDA-MB-231 cells was detected using CellEvent® Caspase 3/7 Green Detection Flow Cytometry Assay Kit. Caspase 3/7 activity in the MDA-MB-231 cell line was detected in the presence of compounds 6 and 12 at their IC50 concentration (µM) using CellEvent® caspase 3/7 green detection flow cytometry assay kit according to the manufacturer’s directions. All experimental steps were conducted as reported earlier.
4.3.4.3. Caspase 3/7 assay for compounds 6 and 12
Caspase 3/7 in MDA-MB-231 cells was investigated using CellEvent® Caspase 3/7 Green Detection Flow Cytometry Assay Kit. Caspase 3/7 activity in MDA-MB-231 cell line was detected in the presence of compounds 6 and 12 at their IC50 concentration (µM) using CellEvent® caspase 3/7 green detection flow cytometry assay kit according to manufacturer’s directions. […] cells at a density of 2.5 × 10^5 per well were harvested and washed with ice cold PBS, and cell lysates were prepared and combined with reaction buffer and incubated with specific colorimetric substrates (Caspase 3/7 Detection Reagent) at 37 °C for 6 h. Detection reagent is composed of DNA binding dye conjugated to caspase 3 and caspase 7 recognition sequence (DEVD) by a short peptide linker. The released DNA binding dye binds DNA producing a bright and stable signal. Finally, the samples were analyzed at 488 nm in a BD FACS Calibur flow cytometer. All experiments were performed in triplicates.
Information Classification: General 4
For orientation: Flow cytometry measures light scatter and fluorescence of single cells or particles in a stream.

A further assay relates to p53. The experiment in a line: ELISA measurement of p53 level in MDA-MB-231 cells. The following applies: MDA-MB-231, at IC50, 24 h. The text has this: (§1) p53, Bax, and Bcl-2 are key regulators of the apoptosis process to keep the balance between viable and dead normal cells. Deregulation of these proteins is a common feature responsible for uncontrolled cancer cell growth. In this test, the protein expression of apoptotic regulators was examined using ELISA analysis. […]
(§2) p53, Bax, and Bcl2 enzyme activities in MDA-MB-231 cells were investigated in the presence of compounds 6 and 12 at their IC50 concentration (µM). The levels of the tumour suppressor gene p53, apoptotic markers Bax as well as the anti-apoptotic marker Bcl-2 were assessed using the p53 ELISA kit, Human Bax ELISA kit, and Bcl-2 Elisa kit. The procedure of the used kits was done according to the manufacturer's instructions and was conducted as reported earlier. […]
(§3) 4.3.4.2. Effect on p53, Bax and Bcl-2 p53, Bax and Bcl2 enzyme activities in MDA-MB-231 cells were detected in the presence of compounds 6 and 12 at their IC50 concentration (µM). The levels of the tumor suppressor gene p53, apoptotic markers Bax as well as the anti-apoptotic marker Bcl-2 were assessed using p53 ELISA kit, Human Bax ELISA kit and Bcl-2 Elisa kit. The procedure of the used kits was done according to the manufacturer's instructions. […] The samples were measured at 450 nm in ROBONEK P2000 ELISA reader. […]
Background: In an ELISA, binding on a coated surface is turned into a signal by an enzyme label.

The next assay concerns Bcl-2. The experiment in a line: ELISA measurement of Bcl-2 level in MDA-MB-231 cells. As to conditions: MDA-MB-231, at IC50, 24 h.
From the text: as §1, §2, §3

Assay [1] has as its system MDA-MB-231 cells. The experiment in a line: Cell cycle analysis by DNA flow cytometry. As to conditions: MDA-MB-231, at IC50, 24 h; for %Pre-G1 (pre-G1 apoptosis): untreated control 1.99%; for %DIP G2/M (cells in G2/M phase): untreated control 5.64%. The procedure: Targeting the cell cycle division at distinct checkpoints of cancer cells has been identified as a promising strategy for cancer chemotherapy.
Cell cycle analysis in MDA-MB-231 cells was investigated using a fluorescent Annexin V-FITC/PI detection kit (BioVision EZCell™ Cell Cycle Analysis Kit Catalog #K920) by flow cytometry assay. All experimental steps were performed as reported earlier.
4.3.3. Cell cycle analysis of compound 6 and 12
Cell cycle analysis in MDA-MB-231 cells was investigated using fluorescent Annexin V-FITC/ PI detection kit (BioVision EZCellTM Cell Cycle Analysis Kit Catalog #K920) by flow cytometry assay. MDA-MB-231 cells at a density of 2 × 10^5 per well were harvested and washed twice in PBS. After that, the cells were incubated at 37 °C and 5% CO2. The […]
washed twice in PBS, fixed with 70% ethanol, rinsed again with PBS. Afterward, medium was stained with DNA fluorochrome PI for 15 min at 37 °C. […]
(§4) All experiments were done in triplicates. […]

In assay [2] the test system is MDA-MB-231 cells. The assay can be described thus: Annexin V-FITC/PI apoptosis staining assay. As to conditions: MDA-MB-231, at IC50, 24 h; for percentage of late apoptotic cells (upper right quadrant): untreated control 0.13%. On the procedure: The effect of compounds 6 and 12 on apoptosis percentage rate was carried out using annexin V-FITC/Propidium iodide (PI) biparametric cytofluorimetric double staining analysis in MDA-MB-231 cells.
Apoptosis in MDA-MB-231 cells was investigated using a fluorescent Annexin V-FITC/PI detection kit (BioVision Annexin V-FITC Apoptosis Detection Kit, Catalog #: K101) by flow cytometry assay. All experimental steps were conducted as reported earlier. […]
4.3.4.1. Apoptosis assay for compounds 6 and 12
Apoptosis in MDA-MB-231 cells was investigated using fluorescent Annexin V-FITC/ PI detection kit (BioVision Annexin V-FITC Apoptosis Detection Kit, Catalog #: K101) by flow cytometry assay. MDA-MB-231 cells at a density of 2 × 10^5 per well were treated […]
stained with Annexin V-FITC/ PI dye for 15 min in the dark at 37 °C. […]
as §4

Turning to `COc1cc(C=C2N=C(c3cc(OC)c(OC)c(OC)c3)N(c3ccccc3)NC2=O)cc(OC)c1OC` [Compound 6, 2-phenyl-5-(3,4,5-trimethoxybenzylidene)-3-(3,4,5-trimethoxyphenyl)-1,2-dihydro-1,2,4-triazin-6(5H)-one], in the assay with caspase 3/7, the “Casp3/7 (percentage of activated caspase 3/7)” value was 12.87% and the “increase in caspase 3/7 activation relative to untreated control” value is listed as “about 15.70 fold”. Moreover, in the assay on p53, the “p53 level increase, fold change compared with no treatment control” value was 11.96 fold. Moreover, the “Bcl-2 level decrease compared with no treatment control” value in the assay on Bcl-2 was found to be 6.49 fold. Also, in the assay on MDA-MB-231 cells [1], the “%Pre-G1 (pre-G1 apoptosis)” value was found to be 43.50% and the “%DIP G2/M (cells in G2/M phase)” value is 35.09%. For the same compound, in the assay with MDA-MB-231 cells [2], the “increase of percentage of early apoptotic cells relative to no treatment control” value is reported as 6.80 fold, the “increase of percentage of total apoptotic cells compared with no treatment control” value came out at 21.86 fold and the “percentage of late apoptotic cells (upper right quadrant)” value is reported as 23.28%.
“ethyl 2-(2-(6-oxo-5-(3,4,5-trimethoxybenzylidene)-3–(3,4,5-trimethoxyphenyl)-5,6-dihydro-1,2,4-triazin-2(1H)-yl)thiazol-4-yl)acetate [Compound 12]”: in the assay on caspase 3/7, the “Casp3/7 (percentage of activated caspase 3/7)” value came to 7.51% and the “increase in caspase 3/7 activation relative to untreated control” value is roughly 9.16 fold. Besides, the “p53 level increase, fold change compared with no treatment control” value with p53 is on record as 5.20 fold. The “Bcl-2 level decrease compared with no treatment control” value in the assay with Bcl-2 turned out to be 2.96 fold. In the assay on MDA-MB-231 cells [1], the “%Pre-G1 (pre-G1 apoptosis)” value was determined as 29.81% and the “%DIP G2/M (cells in G2/M phase)” value was determined as 26.75%. For the same compound, in the assay on MDA-MB-231 cells [2], the “increase of percentage of early apoptotic cells relative to no treatment control” value is listed as 4.36 fold, the “increase of percentage of total apoptotic cells compared with no treatment control” value is on record as 14.98 fold and the “percentage of late apoptotic cells (upper right quadrant)” value is on record as 17.68%.
